Measurements taken from patent publication US10174037B2, “Dihydropyrazolopyrimidinone compounds as PDE2 inhibitors” (Merck Sharp & Dohme Corp., priority 2015, dated 2019).

Each compound was assayed against Rhesus PDE2A3 (Macaca mulatta, UniProt B3VTJ2) (assay: PDE2 fluorescence polarization (IMAP FP) assay, rhesus PDE2A3). Conditions: Lab A, read-out: Rhesus PDE2 Ki (nM) Lab A.
Chain of Rhesus PDE2A3 (B3VTJ2 1-941): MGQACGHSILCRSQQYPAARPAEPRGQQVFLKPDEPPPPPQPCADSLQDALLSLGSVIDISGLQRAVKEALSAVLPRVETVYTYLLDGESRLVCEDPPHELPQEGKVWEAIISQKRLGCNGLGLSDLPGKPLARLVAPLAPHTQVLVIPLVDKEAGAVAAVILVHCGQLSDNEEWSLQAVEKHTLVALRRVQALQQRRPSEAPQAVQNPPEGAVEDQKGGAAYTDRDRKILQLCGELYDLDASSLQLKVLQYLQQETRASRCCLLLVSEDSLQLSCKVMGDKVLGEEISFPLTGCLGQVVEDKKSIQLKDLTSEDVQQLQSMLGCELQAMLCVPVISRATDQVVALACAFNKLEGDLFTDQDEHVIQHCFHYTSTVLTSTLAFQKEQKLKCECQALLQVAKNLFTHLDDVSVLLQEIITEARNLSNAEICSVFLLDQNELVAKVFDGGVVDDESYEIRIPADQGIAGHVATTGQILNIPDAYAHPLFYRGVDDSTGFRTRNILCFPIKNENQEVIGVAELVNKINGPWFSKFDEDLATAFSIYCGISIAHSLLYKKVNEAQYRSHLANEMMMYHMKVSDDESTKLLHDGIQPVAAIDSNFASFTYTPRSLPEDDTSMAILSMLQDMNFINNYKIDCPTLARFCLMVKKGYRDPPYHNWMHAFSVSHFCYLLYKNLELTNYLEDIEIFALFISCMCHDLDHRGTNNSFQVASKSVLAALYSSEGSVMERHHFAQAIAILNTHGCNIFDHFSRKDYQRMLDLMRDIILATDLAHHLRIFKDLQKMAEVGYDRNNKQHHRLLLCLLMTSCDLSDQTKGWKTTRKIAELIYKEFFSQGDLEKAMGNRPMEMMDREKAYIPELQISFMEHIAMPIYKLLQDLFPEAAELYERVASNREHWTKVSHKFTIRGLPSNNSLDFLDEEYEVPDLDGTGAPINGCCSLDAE
Format: biochemical, rhesus macaque
Description: A Labcyte Echo 555 (Labcyte, Sunnyvale, Calif.) is used to dispense 200 nL from each well of the titration plate to the 384 well assay plate. Ten microliters of a solution of enzyme (1/2000 final dilution from aliquots; sufficient to produce 20% substrate conversion) was added to the assay plate. Next 10 uL of a separate solution of the substrate FAM-labeled cAMP (50 nM final concentration product # R7506 from Molecular Devices) and the activator cGMP (1 uM final concentration), prepared in the assay buffer (10 mM Tris HCl, pH 7.2, 10 mM MgCl2, 0.05% NaN3 0.01% Tween-20, and 1 mM DTT) was added to the assay plate and shaken to mix. The reaction is allowed to proceed at room temperature for 60 minutes. A binding solution is then made from the kit components, comprised of 80% Solution A, 20% Solution B and binding reagent at a volume of 1/600 the total binding solution. The enzymatic reaction is stopped by addition of 60 μL of the binding solution to each well of the assay plates and the plates are sealed and shaken for 30 seconds. The plate was incubated at room temperature for at least one hour prior to determining the fluorescence polarization (FP). The parallel and perpendicular fluorescence of each well of the plate was measured using a Tecan Genios Pro plate reader (Tecan, Switzerland) or Perkin Elmer EnVision™ plate reader (Waltham, Mass.). Fluorescence polarization (mP) was calculated from the parallel (S) and perpendicular (P) fluorescence of each sample well and the analogous values for the median control well, containing only substrate (So and Po), using the following equation: Polarization (mP)=1000*(S/So−P/Po)/(S/So+P/Po).
Dose-inhibition profiles for each compound were characterized by fitting the mP data to a four-parameter equation given below.
An apparent (KM) for FAM-labeled cAMP of ˜10 uM was used.
For `CC(c1ccc(C(F)(F)F)cc1)n1nc(CO)c2c(=O)[nH]c(O)nc21` (single isomer, unassigned) [Example 18, (R)- or (S)-6-Hydroxy-3-(hydroxymethyl)-1-{1-[4-(trinuoromethyl)phenyl]ethyl}-1,5-dihydro-4H-pyrazolo[3,4-d]pyrimidin-4-one], the Ki was > 1000 nM.
`CC(c1ccc(OC(F)(F)F)c(F)c1)n1nc(CO)c2c(=O)[nH]c(O)nc21` (single isomer, unassigned) [Example 10] showed a Ki of 145 nM.
Work on `Cc1nn(Cc2ccc(C(F)(F)F)cc2)c2nc(O)[nH]c(=O)c12` [Example 61, 6-Hydroxy-3-methyl-1-[4-(trifluoromethyl)benzyl]-1,5-dihydro-4H-pyrazolo[3,4-d]pyrimidin-4-one] yielded a Ki of ~951 nM.
For `CC(c1ccc(OC(F)(F)F)c(F)c1)n1nc(CO)c2c(=O)[nH]c(O)nc21` (single isomer, unassigned) [Example 11], the Ki was 14 nM.
`O=c1[nH]c(O)nc2c1c(CO)nn2Cc1ccc(C(F)(F)F)cc1` [Example 9, 6-Hydroxy-3-(hydroxymethyl)-1-[4-(trifluoromethyl)benzyl]-1,5-dihydro-4H-pyrazolo[3,4-d]pyrimidin-4-one] was tested, and the Ki was ~548 nM.
`Cc1ccc(C(C)n2nc(CO)c3c(=O)[nH]c(O)nc32)cc1` (centres unmarked) [Example 8] showed a Ki of 411 nM.

Same assay, conditions: Lab B, read-out: Rhesus PDE2 Ki (nM) Lab B
`CC(C)C(c1ccc(C(F)(F)F)c(F)c1)n1nc(CC(F)(F)F)c2c(=O)[nH]c(O)nc21` (single isomer, unassigned) [Example 259] gave a Ki of 148 nM.
`CC(C)C(c1ccc(C(F)(F)F)cc1)n1nc(CC(F)(F)F)c2c(=O)[nH]c(O)nc21` (single isomer, unassigned) [Example 241, (S)- or (R)-6-Hydroxy-1-(2-methyl-1-(4-(trifluoromethyl)phenyl)propyl)-3-(2,2,2-trifluoroethyl)-1H-pyrazolo[3,4-d]pyrimidin-4(5H)-one] was tested, and the Ki was 199 nM.
With `O=c1[nH]c(O)nc2c1c(CC(F)(F)F)nn2C(c1ccc(C(F)(F)F)cc1)C1CC1` (single isomer, unassigned) [Example 228] the Ki was 210 nM.
Work on `CCC(c1ccc(CC(F)(F)F)c(F)c1)n1nc(CO)c2c(=O)[nH]c(N(C)C)nc21` (single isomer, unassigned) [Example 96, (R)- or (S)-6-(Dimethylamino)-1-(1-(3-fluoro-4-(2,2,2-trifluoroethyl)phenyl)propyl)-3-(hydroxymethyl)-1H-pyrazolo[3,4-d]pyrimidin-4(5H)-one] yielded a Ki of 0.5 nM.
`O=c1[nH]c(O)nc2c1c(CC(F)(F)F)nn2C(c1ccc(C(F)(F)F)c(F)c1)C1CC1` (single isomer, unassigned) [Example 239, (S)- or (R)-1-(Cyclopropyl(3-fluoro-4-(trifluoromethyl)phenyl)methyl)-6-hydroxy-3-(2,2,2-trifluoroethyl)-1H-pyrazolo[3,4-d]pyrimidin-4(5H)-one] showed a Ki of 166 nM.
For `CC(c1ccc(OC(F)(F)F)cc1)n1nc(C(F)F)c2c(=O)[nH]c(O)nc21` (single isomer, unassigned) [Example 273, (R)- or (S)-3-(Difluoromethyl)-6-hydroxy-1-(1-(4-(trifluoromethoxy)phenyl)ethyl)-1H-pyrazolo[3,4-d]pyrimidin-4(5H)-one], the Ki was 113 nM.
`CC(C)(C)C(c1ccc(C(F)(F)F)c(F)c1)n1nc(CO)c2c(=O)[nH]c(O)nc21` (single isomer, unassigned) [Example 25] was tested, and the Ki was 238 nM.
In the case of `CC(C)(C)C(c1ccc(C(F)(F)F)cc1)n1nc(CO)c2c(=O)[nH]c(O)nc21` (single isomer, unassigned) [Example 29, (R)- or (S)-1-(2,2-Dimethyl-1-(4-(trifluoromethyl)phenyl)propyl)-6-hydroxy-3-(hydroxymethyl)-1H-pyrazolo[3,4-d]pyrimidin-4(5H)-one], the Ki was 220 nM.
With `CC(c1ccc(OC(F)(F)F)c(F)c1)n1nc(CO)c2c(=O)[nH]c(O)nc21` (single isomer, unassigned) [Example 10] the Ki was 249 nM.
`N#CCc1nn(C(c2ccc(C(F)(F)F)cc2)C2CC2)c2nc(O)[nH]c(=O)c12` (single isomer, unassigned) [Example 297] gave a Ki of 207 nM.
For `CC(c1ccc(C(C)(C)C)cc1)n1nc(CC(F)(F)F)c2c(=O)[nH]c(O)nc21` (single isomer, unassigned) [Example 237, (S)- or (R)-1-(1-(4-tert-Butylphenyl)ethyl)-6-hydroxy-3-(2,2,2-trifluoroethyl)-1H-pyrazolo[3,4-d]pyrimidin-4(5H)-one], the Ki was 494 nM.
For `O=c1[nH]c(O)nc2c1c(CC(F)(F)F)nn2C(c1ccc(OC(F)(F)F)c(F)c1)C1CC1` (single isomer, unassigned) [Example 253, (S)- or (R)-1-(Cyclopropyl(3-fluoro-4-(trifluoromethoxy)phenyl)methyl)-6-hydroxy-3-(2,2,2-trifluoroethyl)-1H-pyrazolo[3,4-d]pyrimidin-4(5H)-one], the Ki was 120 nM.
Work on `CC(C)(C)c1ccc(C(C2CC2)n2nc(CC(F)(F)F)c3c(=O)[nH]c(O)nc32)cc1` (single isomer, unassigned) [Example 251, (S)- or (R)-1-((4-tert-Butylphenyl)(cyclopropyl)methyl)-6-hydroxy-3-(2,2,2-trifluoroethyl)-1H-pyrazolo[3,4-d]pyrimidin-4(5H)-one] yielded a Ki of 363 nM.
Compound `CC(C)C(c1ccc(C(F)(F)F)cc1)n1nc(CO)c2c(=O)[nH]c(O)nc21` (single isomer, unassigned) [Example 12] has a Ki of 192 nM.
With `CC(C)C(c1ccc(C(F)(F)F)c(F)c1)n1nc(CO)c2c(=O)[nH]c(O)nc21` (single isomer, unassigned) [Example 28, (S)- or (R)-1-(1-(3-F1uoro-4-(trifluoromethyl)phenyl)-2-methylpropyl)-6-hydroxy-3-(hydroxymethyl)-1H-pyrazolo[3,4-d]pyrimidin-4(5H)-one] the Ki was 117 nM.
For `CC(C)(C)C(c1ccc(C(F)(F)F)cc1)n1nc(C(F)F)c2c(=O)[nH]c(O)nc21` (single isomer, unassigned) [Example 284, (S)- or (R)-3-(Difluoromethyl)-1-(2,2-dimethyl-1-(4-(trifluoromethyl)phenyl)propyl)-6-hydroxy-1H-pyrazolo[3,4-d]pyrimidin-4(5H)-one], the Ki was 206 nM.
For `CC(c1ccc(OC(F)(F)F)c(F)c1)n1nc(CO)c2c(=O)[nH]c(O)nc21` (single isomer, unassigned) [Example 11], the Ki was 34 nM.
`CCC(c1ccc(C(F)(F)F)cc1)n1nc(C(F)F)c2c(=O)[nH]c(O)nc21` (single isomer, unassigned) [Example 285, (R)- or (S)-3-(Difluoromethyl)-6-hydroxy-1-(1-(4-(trifluoromethyl)phenyl)propyl)-1H-pyrazolo[3,4-d]pyrimidin-4(5H)-one] gave a Ki of 232 nM.
In the case of `O=c1[nH]c(O)nc2c1c(CC(F)(F)F)nn2C(c1ccc(OC(F)(F)F)cc1)C1CC1` (single isomer, unassigned) [Example 243, (S)- or (R)-1-(Cyclopropyl(4-(trifluoromethoxy)phenyl)methyl)-6-hydroxy-3-(2,2,2-trifluoroelhyl)-1H-pyrazolo[3,4-d]pyrimidin-4(5H)-one], the Ki was 191 nM.
With `O=c1[nH]c(O)nc2c1c(CO)nn2C(CC(F)(F)F)c1ccc(C(F)(F)F)cc1` (single isomer, unassigned) [Example 23] the Ki was ~2700 nM.
`CC(C)(C)C(c1ccc(C(F)(F)F)cc1)n1nc(CF)c2c(=O)[nH]c(O)nc21` (single isomer, unassigned) [Example 51] showed a Ki of 123 nM.
`CC(C)C(c1ccc(OC(F)(F)F)cc1)n1nc(CC(F)(F)F)c2c(=O)[nH]c(O)nc21` (single isomer, unassigned) [Example 232, (R)- or (S)-6-Hydroxy-1-(2-methyl-1-(4-(trifluoromethoxy)phenyl)propyl)-3-(2,2,2-trifluoroethyl)-1H-pyrazolo[3,4-d]pyrimidin-4(5H)-one] showed a Ki of 192 nM.
Work on `CCC(c1ccc(C(F)F)c(F)c1)n1nc(CO)c2c(=O)[nH]c(N(C)C)nc21` (single isomer, unassigned) [Example 147] yielded a Ki of 0.54 nM.
`CC(C)C(c1ccc(C(C)(C)C)cc1)n1nc(CC(F)(F)F)c2c(=O)[nH]c(O)nc21` (single isomer, unassigned) [Example 261, (S)- or (R)-1-(1-(4-tert-Butylphenyl)-2-methylpropyl)-6-hydroxy-3-(2,2,2-trifluoroethyl)-1H-pyrazolo[3,4-d]pyrimidin-4(5H)-one] was tested, and the Ki was ~1400 nM.
`CC(c1ccc(C(F)(F)F)cc1)n1nc(C(F)(F)C(F)(F)F)c2c(=O)[nH]c(O)nc21` (single isomer, unassigned) [Example 267, (S)- or (R)-6-Hydroxy-3-(perfluoroethyl)-1-(1-(4-(trifluoromethyl)phenyl)ethyl)-1H-pyrazolo[3,4-d]pyrimidin-4(5H)-one] was tested, and the Ki was 448 nM.
In the case of `CC(C)C(c1ccc(OC(F)(F)F)cc1)n1nc(CC(F)(F)F)c2c(=O)[nH]c(O)nc21` (single isomer, unassigned) [Example 233, (S)- or (R)-6-Hydroxy-1-(2-methyl-1-(4-(trifluoromethoxy)phenyl)propyl)-3-(2,2,2-trifluoroethyl)-1H-pyrazolo[3,4-d]pyrimidin-4(5H)-one], the Ki was 132 nM.
